Reference: US10039743B2, “Method of treating presbyopia using dithiol compounds and their derivatives” (Encore Health, LLC, priority 2009, dated 2018)

Tests used:
[1] = cited from earlier work
[2] = test system: mouse lenses; test: Increase in elasticity: change in lens diameter (ΔD) under coverslip load in lens organ culture; format: cell-based; settings: lipoic acid at concentrations ≥9.6 μM, 8-15 hours incubation, vs control; p<0.0001
Method: The relative change in Young's modulus (E) can be calculated as the cubic value derived from the ΔD of the control divided by the ΔD of the experimental or E fractional change=(ΔD con/ΔDexp)^3. Pairs of mouse lenses were incubated in medium 200 supplemented with an antibiotic, an antimycotic, in the presence or absence of lipoic acid (concentrations ranging from 0.5 μM to 500 μM) for 8-15 hours. Each lens was removed from medium, weighed, and photographed on a micrometer scale. A coverslip of known weight (0.17899±0.00200 g) was placed on the lens, and the lens was photographed again on the micrometer scale. The diameter of each lens with and without the coverslip was determined from the photographs. The change in lens diameter produced by the force (coverslip) was computed ΔD=(Dwithcoverslip−Dwithoutcoverslip).

[3] = test system: protein disulfides in the mouse lenses; test: Decrease in disulfide bonds: protein SH / SS groups in lens homogenates by differential fluorescent alkylation; format: cell-based
Method: FIG. 5 depicts a scattergram of the percent of the total protein SH groups in disulfide bonds. Free SH groups were alkylated with 4-acctamido-4′-maleimidylstilbcne-2,2′-sulfonic acid (c, 1 μM, 5 μM, 9.6 μM, 50 μM, 96 μM) or 7-diethylamino-3-(4′maleimidylphenyl)-4-methyl coumarin (500 μM, and 500 μM c). Following removal of the first alkylating agent, the S—S bonds were reduced and alkylated with fluorescein-5-maleimide. Absorption spectra were used to calculated total protein (A280 nm), free protein SH (A322 or A384), and protein SS (A490) using the appropriate extinction coefficients. The symbol $ indicates statistically significant difference of mean with mean of control (c, p≤0.05).
Mouse lenses were homogenized in a denaturing buffer containing a fluorescent alkylating agent to modify the free SH groups. After removing the alkylating agent homogenates were reduced and alkylated with a different fluorescent alkylating agent. Absorption spectra of the modified proteins were used to calculate free protein SH and protein SS groups.

SMILES | limit of solubility in aqueous solution [1] [µM] | change in lens diameter produced by the force (coverslip), ΔD [2] | percent of total protein SH groups in disulfide bonds, mean vs 500 μM control ([3]; 500 μM lipoic acid vs 500 μM control, p=0.027) | protein disulfides (percent of total protein SH groups in disulfide bonds) ([3]; lipoic acid at concentrations ≥9.6 μM, vs control, p≤0.05)
N[C@@H](CSSC[C@H](N)C(=O)O)C(=O)O [cystine, 3,3′-disulanedylbis(2-aminopropanoic acid)] | 20 |  |  | 
O=C(O)CCCCC1CCSS1 (stereo not shown) [lipoic acid, 5-(1,2-dithiolan-3-yl)pentanoic acid] |  | statistically significant increase | significantly different | statistically significant decrease
